Laboratory results from paper PMC12649225, “Machine Learning-Identified Potent Antimicrobial Peptides Against Multidrug-Resistant Bacteria and Skin Infections” (Antibiotics, 2025).
Like-named read-outs stand apart in the source and are kept apart here. Residues, ends and D or L forms follow the SMILES beside them.

Tests used:
S. aureus JAR060131 [1] = test system: S. aureus JAR060131
Description: (§1) Bacteria incubated in PBS alone served as no-treatment controls. At five time points (1, 2, 5, 30, and 120 min), duplicate 50 µL samples were taken and immediately mixed with 50 µL of 0.05% (v/v) sodium polyanethol sulfonate (SPS; Sigma-Aldrich) in PBS to neutralize residual peptide activity. The number of viable bacteria was quantified by plating 10 µL aliquots of serial 10-fold dilutions onto sheep blood agar plates. Colonies were counted after 24 h of incubation at 37 °C.

E. faecium LUH15122 = type: cell-based; conditions: for LC99.9 E. faecium LUH15122 50% Plasma 18 h / LC99.9 E. faecium LUH15122 RPMI 18 h: LUH15122, 18 h
S. aureus LUH14616 = type: cell-based; conditions: for LC99.9 S. aureus LUH14616 50% Plasma 2 h / LC99.9 S. aureus LUH14616 RPMI 2 h: LUH14616, 2 h; for LC99.9 S. aureus LUH14616 50% Plasma 18 h / LC99.9 S. aureus LUH14616 RPMI 18 h: LUH14616, 18 h
E. cloacae LUH15114 = type: cell-based; conditions: for LC99.9 E. cloacae LUH15114 50% Plasma 2 h / LC99.9 E. cloacae LUH15114 RPMI 2 h: LUH15114, 2 h
[2] = test system: BJ human skin fibroblast cells; experiment: LDH leakage assay (membrane integrity); conditions: lowest concentration causing >30% LDH leakage; BJ fibroblasts; 24 h; DMEM with 2% FBS; 0.05-60 µM
Description: BJ human skin fibroblast cells (ATCC CRL-2522; RRID: CVCL_3653; LGC Standards, Germany (September 2023)) were cultured in Dulbecco’s Modified Eagle Medium (DMEM; Gibco, Waltham, MA, USA) supplemented with 10% (v/v) foetal bovine serum (FBS; Sigma-Aldrich) and 1% (v/v) penicillin/streptomycin (pen/strep; Gibco). Cell suspensions (5 × 10^5 cells/mL) were seeded into 96-well plates (100 μL/well; Thermo Scientific, Waltham, MA, USA) and allowed to adhere for 24 h. Monolayers were then exposed to two-fold serial dilutions of GDST peptides, their RI variants, and reference peptides (final concentrations: 0.05 to 60 µM) in fresh DMEM with 2% (v/v) FBS for 24 h at 37 °C in a humidified atmosphere with 5% CO2.
Cell viability and membrane integrity were assessed using the water-soluble tetrazolium salt (WST-1; Roche, Basel, Switzerland) assay and the lactate dehydrogenase (LDH; Abcam, Cambridge, UK) assay, respectively, according to manufacturer instructions. Results were expressed as percentages of metabolic activity and LDH leakage relative to untreated control cells and the positive lysis control, respectively. The cytotoxic concentration was defined as the lowest peptide concentration causing <70% metabolic activity and >30% LDH leakage. All experiments were performed in triplicate.

S. aureus JAR060131 [3] = experiment: SYTOX Green membrane permeabilization assay; type: cell-based, Staphylococcus aureus; conditions: for Time to rise in SYTOX fluorescence intensity after peptide addition, S. aureus: at both sublethal and lethal concentrations; for Concentrations causing rapid rise in SYTOX fluorescence, S. aureus: RPMI, 1 μM SYTOX Green, 90 min, 37 °C
Description: Control samples were exposed to RPMI only. As a positive control, heat-killed bacteria were incubated at 95 °C for 10 min to induce maximum membrane permeabilization. Fluorescence (excitation: 485 nm, emission: 520 nm) was monitored every minute for 90 min at 37 °C using a […] plate reader (Ortenberg, Germany), with peptides and positive controls added after the third cycle. Background fluorescence (SYTOX Green alone) was subtracted from all values. All assays were performed in triplicate and repeated twice independently.

A. baumannii RUH875 = test system: A. baumannii RUH875
Description: as §1

Compound | Time to complete killing of S. aureus (S. aureus JAR060131 [1]; 1.88 μM) [min] | LC99.9 E. faecium LUH15122 50% Plasma 2 h (E. faecium LUH15122; LUH15122, 2 h) [µM] | LC99.9 E. faecium LUH15122 RPMI 2 h (E. faecium LUH15122; LUH15122, 2 h) [µM] | LC99.9 E. faecium LUH15122 50% Plasma 18 h (E. faecium LUH15122) [µM] | LC99.9 E. faecium LUH15122 RPMI 18 h (E. faecium LUH15122) [µM] | LC99.9 S. aureus LUH14616 50% Plasma 2 h (S. aureus LUH14616) [µM] | LC99.9 S. aureus LUH14616 RPMI 2 h (S. aureus LUH14616) [µM] | LC99.9 S. aureus LUH14616 50% Plasma 18 h (S. aureus LUH14616) [µM] | LC99.9 S. aureus LUH14616 RPMI 18 h (S. aureus LUH14616) [µM] | LC99.9 E. cloacae LUH15114 50% Plasma 2 h (E. cloacae LUH15114) [µM] | LC99.9 E. cloacae LUH15114 RPMI 2 h (E. cloacae LUH15114) [µM] | LC99.9 E. cloacae LUH15114 50% Plasma 18 h (E. cloacae LUH15114; LUH15114, 18 h) [µM] | LC99.9 E. cloacae LUH15114 RPMI 18 h (E. cloacae LUH15114; LUH15114, 18 h) [µM] | Cytotoxicity LDH Leakage >30% [2] [µM] | Time to rise in SYTOX fluorescence intensity after peptide addition, S. aureus (S. aureus JAR060131 [3]) [min] | Concentrations causing rapid rise in SYTOX fluorescence, S. aureus (S. aureus JAR060131 [3]) [µM] | Time to complete killing of A. baumannii (A. baumannii RUH875; 3.75 μM) [min] | Time to complete killing of S. aureus (S. aureus JAR060131 [1]; 3.75 μM) [min] | further results
Ac-KRWVKILKKVWRFL-NH2 [GDST-045] | ≤ 2 | 0.94 | 0.94 | 3.75 | 0.94 | 15 | 0.94 | 1.88 | 0.94 | 60 | 1.88 | 30 | 1.88 | 3.75 | ≤ 1 | – | – | – | –
Ac-LKRVWKRVFKLLKRYWRQLKKPVR-NH2 (N-terminus and C-terminus assumed) [SAAP-148, reference compound] | – | – | – | – | – | – | – | – | – | – | – | – | – | 1.88 | – | 0.23 to 1.88 | – | – | E. cloacae eradicated at lower concentrations in plasma (E. cloacae LUH15114; 50% plasma vs RPMI, 18 h): 4 fold
CC[C@@H](C)[C@@H](NC(=O)[C@@H](C)NC(=O)[C@@H](CCCCN)NC(=O)[C@@H](CCCCN)NC(=O)[C@@H](Cc1c[nH]c2ccccc12)NC(=O)[C@@H](Cc1c[nH]c2ccccc12)NC(=O)[C@@H](CCCNC(=N)N)NC(=O)[C@@H](CC(C)C)NC(=O)[C@@H](CC(C)C)NC(C)=O)C(=O)N[C@H](CCCCN)C(=O)N[C@@H](C(=O)N[C@H](Cc1c[nH]c2ccccc12)C(=O)N[C@H](CCCNC(=N)N)C(=O)N[C@H](CCCCN)C(N)=O)C(C)C [GDST-038-RI] (HELM PEPTIDE1{[ac].[dL].[dL].[dR].[dW].[dW].[dK].[dK].[dA].[dI].[dK].[dV].[dW].[dR].[dK].[am]}$$$$V2.0; N-terminus and C-terminus assumed) | – | – | 3.75 | 3.75 | 0.94 | 30 | – | – | 0.47 | 60 | 30 | – | – | 3.75 | – | 1.88 to 3.75 | 120 | ≤ 2 | –
Ac-KRWVKIAKKWWRLL-NH2 [GDST-038] | ≤ 5 | – | – | 7.5 | 0.94 | 7.5 | 0.94 | 0.94 | 0.94 | 60 | 3.75 | – | – | 3.75 | ≤ 1 | – | – | – | Time to complete killing of A. baumannii (A. baumannii RUH875; 1.88 μM): ≤ 5 min; Killing of A. baumannii within 5 min (A. baumannii RUH875; 1.88 μM, PBS, 5 min): > 90%; Killing of S. aureus within 5 min (S. aureus JAR060131 [1]; 1.88 μM, PBS, 5 min): > 90%; LC99.9 E. faecium LUH15122 50% Plasma 2 h (E. faecium LUH15122; 50% plasma, 2 h, median of three independent experiments): 1.88 µM; LC99.9 E. faecium LUH15122 RPMI 2 h (E. faecium LUH15122; RPMI, 2 h, median of three independent experiments): 1.88 µM; LC99.9 E. cloacae LUH15114 50% Plasma 18 h (E. cloacae LUH15114; 50% plasma, 18 h, median of three independent experiments): 1.88 µM; LC99.9 E. cloacae LUH15114 RPMI 18 h (E. cloacae LUH15114; RPMI, 18 h, median of three independent experiments): 1.88 µM
CC[C@@H](C)[C@@H](NC(=O)[C@@H](CC(C)C)NC(=O)[C@@H](CCCCN)NC(=O)[C@@H](CCCCN)NC(=O)[C@H](NC(=O)[C@@H](Cc1c[nH]c2ccccc12)NC(=O)[C@@H](CCCNC(=N)N)NC(=O)[C@@H](Cc1ccccc1)NC(=O)[C@@H](CC(C)C)NC(C)=O)C(C)C)C(=O)N[C@H](CCCCN)C(=O)N[C@@H](C(=O)N[C@H](Cc1c[nH]c2ccccc12)C(=O)N[C@H](CCCNC(=N)N)C(=O)N[C@H](CCCCN)C(N)=O)C(C)C [GDST-045-RI] (HELM PEPTIDE1{[ac].[dL].[dF].[dR].[dW].[dV].[dK].[dK].[dL].[dI].[dK].[dV].[dW].[dR].[dK].[am]}$$$$V2.0; N-terminus and C-terminus assumed) | – | 1.88 | 0.94 | 3.75 | 0.94 | 15 | 0.94 | 1.88 | 0.94 | 120 | 15 | 30 | 3.75 | 3.75 | – | 1.88 to 3.75 | ≤ 120 | ≤ 30 | –
